Results as given in US10640545B2 (THE GOVERNORS OF THE UNIVERSITY OF ALBERTA, priority 2017, dated 2020).
*1 amine or outer side, *2 acyl side, *3 side chain or, on linkers, in order; H or OH if unused. Where a SMILES comes first, the peptide text is derived from it. [ ]: non-standard residue; d: D form. The star is where a group is joined. Phe(4-Br) = N[C@@H](Cc1ccc(Br)cc1)C(=O)O; azaLeu = CC(C)CN(N[*:1])C(=O)[*:2]; Palmitoyl = CCCCCCCCCCCCCCCC(=O)*; NMeL = CN[C@@H](CC(C)C)C(=O)O; pGlu = O=C1CC[C@@H](C(=O)O)N1; Nle = CCCC[C@H](N)C(=O)O; Aib = CC(C)(N)C(=O)O

Tests used:
[1] = biological target: T1, wild-type rat apelin receptor (Rattus norvegicus, UniProt Q9JHG3); experiment: Radioligand binding, displacement of [125I]-pyr-1-apelin-13 on CHO cell membranes
T1 construct: expressed in transfected cells
T1 sequence (Q9JHG3 1-377): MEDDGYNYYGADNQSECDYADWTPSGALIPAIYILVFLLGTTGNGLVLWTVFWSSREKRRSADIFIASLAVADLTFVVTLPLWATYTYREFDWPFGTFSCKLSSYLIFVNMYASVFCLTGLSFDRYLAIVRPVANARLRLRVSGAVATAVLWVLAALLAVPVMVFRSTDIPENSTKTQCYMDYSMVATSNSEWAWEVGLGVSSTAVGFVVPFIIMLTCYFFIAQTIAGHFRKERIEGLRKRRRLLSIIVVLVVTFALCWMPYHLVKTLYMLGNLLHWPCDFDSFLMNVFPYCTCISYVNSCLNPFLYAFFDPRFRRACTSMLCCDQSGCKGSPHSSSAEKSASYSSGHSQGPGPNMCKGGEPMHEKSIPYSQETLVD
Procedure: This experiment evaluated the ability of peptides of the present embodiments to bind to the wild-type rat apelin receptor, in order to examine the impact of synthetic modification within the critical RPRL motif of the apelin peptides.
Membrane preparations from CHO cells stably expressing the wild-type rat apelin receptor-EGFP were prepared as previously described (Gerbier et al., New Structural Insights Into The Apelin Receptor: Identification Of Key Residues For Apelin binding; FASEB J. 2015, 29, 314-322; Iturrioz et. al., Development Of Original Metabolically-Stable Apelin-17 Peptides With Diuretic And Cardiovascular Effects; FASEB J. 2017, 31, 687-700.) Crude membrane preparations (1 μg total mass of membranes/assay) were incubated for 3 h at 20° C. with 0.2 nM [^125I]-pyr-1-apelin-13 (monoiodinated on Lys^8 with Bolton-Hunter reagent, Perkin Elmer, Wellesley, Mass., USA) in binding buffer (50 mM HEPES, 5 mM MgCl2 1149 pH 7.5, BSA 1%) alone or in presence of the different compounds at various concentrations. The reaction was stopped by adding 4 mL of cold binding buffer, filtered on Whatman GF/C filters and washed with 5 mL of cold binding buffer. Radioactivity was then counted using a Wizard 1470 Wallac gamma counter (Perkin Elmer, Turku, Finland). Binding experiment data were analyzed with Graph Pad Prism.

in vitro = conditions: human, plasma
isolated rat hearts = experiment: Langendorff isolated heart, ischemia-reperfusion injury; conditions: ex vivo heart, 30 min ischemia, peptide at start of reperfusion for 10 min at 1 pM
Procedure: The ex vivo heart was assessed for a variety of parameters (heart rate (HR); left ventricle developed pressure (LVDP); maximum derivative of change in systolic pressure over time (max dP/dt); minimum derivative of change in diastolic pressure over time (min dP/dt); and rate-pressure product (RPP)) indicative of general heart function and performance (FIG. 11).
Langendorff heart perfusion and ischemia-reperfusion injury were prepared and cardiac function was measured. Mice were heparinized and anaesthetized with 1.5-2% isoflurane inhalation. The heart was excised, mounted on a Langendorff system, and perfused at a consistent pressure of 80 mmHg with modified Krebs-Henseleit solution (116 mM NaCl, 3.2 mM KCl, 2.0 mM CaCl2), 1.2 mM MgSO4, 25 mM NaHCO3, 1.2 mM KH2PO4, 11 mM glucose, 0.5 mM EDTA and 2 mM pyruvate), which was kept at 37° C. and continuously oxygenated with 95% O2 and 5% CO2 which maintained the perfusion buffer at pH 7.4. After stabilization and 10 min baseline recording, global ischemia was induced for 30 min followed by 40 min of reperfusion. Apelin 17 (2) or apelin peptides (11, 17, 18, or 19) were given at the start of reperfusion for 10 min at a concentration of 1 pM. Left ventricular functions were obtained continuously by PowerLab system (ADInstruments, Australia). Data was reported as mean value of every 5 min. Left ventricular functions were reported as: Left Ventricular Developed Pressure (LVDP); Heart rate (HR); maximum derivative of change in systolic pressure over time (max dP/dt); minimum derivative of change in diastolic pressure over time (min dP/dt); and Rate Pressure Product (RPP).

[2] = biological target: T2, KLKB1 (plasma kallikrein) (Homo sapiens, UniProt P03952); experiment: In vitro KLKB1 stability (half-life); assay type: in vitro ADME; conditions: human
T2 construct: purchased Novoprotein

[3] = biological target: Human plasma kallikrein KLKB1 (Homo sapiens, UniProt P03952); experiment: Plasma kallikrein KLKB1 qualitative cleavage assay (MALDI-TOF)
Procedure: Native apelin-17 (2) and apelin peptides 5, 56, 57, 58 and 59 were dissolved in Milli-Q water (1 mM). Human plasma kallikrein KLKB1 were each reconstituted in Tris buffer (100 mM TrisHCl, 10 mM CaCl2), 150 mM NaCl) and diluted with Tris buffer (50 mM TrisHCl, 250 mM NaCl) to give a KLKB1 concentration of […]. The KLKB1 enzyme was then preincubated at 37° C. for 10 minutes prior to the addition of 5 μL of apelin peptide (1 mM). Aliquots (1 μL) were taken at 1, 2, 4, 6, 12, 24, 36, and 48 hours and analyzed with MALDI-TOF mass spectrometry to qualitatively determine the time point at which degradation products could be observed (Table 4).

neprilysin (NEP) = neprilysin (NEP) (Homo sapiens, UniProt P08473); experiment: in vitro; conditions: human, pH 7.5
Procedure: This experiment compared the in vitro NEP stability of the Arg/Leu peptides of the embodiments to native apelin isoforms and their A2 substituted counterparts. Peptides were incubated with recombinant human NEP (rhNEP, Sino Biological) at 37° C. for up to 72 h, and the extent of degradation was analyzed via LC-MS because of the overlapping elution patterns of peptide fragments. […] (McKinnie, S. M. K., et al. ChemBioChem: 17, 1495-1498 (2016)). […] (Dion, N., et al., Biochem. J.: 311, 623-627 (1995); Bateman Jr., R. C., et al., J. Biol. Chem.: 264, 6151-6157 (1989); McMurray, J. J. et al., J. Med.: 371, 993-1004 (2014)).
Apelin peptides were dissolved in Milli-Q water (1 mM). Recombinant human neprilysin (rhNEP, Sino Biological) was reconstituted in Tris buffer (100 mM Tris, 100 mM NaCl, 10 μM ZnCl2, pH 7.5). To initiate the assay, rhNEP was diluted in Tris buffer (3.1 nM final concentration), and preincubated at 37° C. for 10 minutes prior to the addition of 5 μL of apelin peptide (1 mM) and 1.5 μL internal standard dansyl-Tyr-Val-Gly-OH (1 mM). Aliquots (10 μL) were removed at 0, 1, 4, 24, and 72 h, quenched with 0.1 M EDTA (10 μL), diluted to 100 μL with Milli-Q water and analyzed by LC-MS. Assays were performed in triplicate (n=3) for each time point. Integrated peak areas of the parent apelin peptide and internal standard derived from LC-MS analyses, were extracted using Mass Hunter software (version B.04.00) and compared in positive extracted ion count modus (+EIC, extracted-ion chromatogram). […] (apelin:dansyl-YVG), to the same ratio at the different assay time points. The decrease in apelin:dansyl-YVG ratio was converted to a percentage of cleaved peptide over time.
The extent of degradation was analyzed via LC-MS because of the overlapping elution patterns of peptide fragments (NEP).
Native apelin-17 (2) and apelin peptides 5, 54, 56, 57, 58 and 59 were dissolved in Milli-Q water (1 mM). Recombinant human neprilysin (rhNEP, Sino Biological) was reconstituted in Tris buffer (100 mM Tris, 100 mM NaCl, 10 μM ZnCl2, pH 7.5). To initiate the assay, rhNEP was diluted in Tris buffer (3.1 nM final concentration) and preincubated at 37° C. for 10 min prior to the addition of 5 μL of apelin peptide (1 mM) and 1.5 μL of internal standard dansyl-Tyr-Val-Gly-OH (1 mM). Aliquots (10 μL) were removed at 0, 1, 4, 24, and 72 h, quenched with 0.1 M EDTA (10 μL), diluted to 100 μL with Milli-Q water, and analyzed by LC-MS. Assays were performed in triplicate (n=3) for each time point. Integrated peak areas of the parent apelin peptide and internal standard derived from LC-MS analyses were extracted using Mass Hunter software (version B.04.00) and compared in positive extracted ion count modus (+EIC). The extent of proteolysis was determined by comparing the initial (0 h) ratio of the integrated extracted ions of the parent apelin peptide to the internal dansyl-YVG standard (apelin/dansyl-YVG) to the same ratio at the different assay time points. The decrease in apelin/dansyl-YVG ratio was converted to a percentage of cleaved peptide over time.

[4] = tested on: recombinant human neprilysin (rhNEP, Sino Biological); experiment: rhNEP diluted in Tris buffer (100 mM Tris, 100 mM NaCl, 10 μM ZnCl2, pH 7.5), 3.1 nM final concentration; conditions: 37° C., up to 72 h

Sequence of Human plasma kallikrein KLKB1 (P03952 20-638): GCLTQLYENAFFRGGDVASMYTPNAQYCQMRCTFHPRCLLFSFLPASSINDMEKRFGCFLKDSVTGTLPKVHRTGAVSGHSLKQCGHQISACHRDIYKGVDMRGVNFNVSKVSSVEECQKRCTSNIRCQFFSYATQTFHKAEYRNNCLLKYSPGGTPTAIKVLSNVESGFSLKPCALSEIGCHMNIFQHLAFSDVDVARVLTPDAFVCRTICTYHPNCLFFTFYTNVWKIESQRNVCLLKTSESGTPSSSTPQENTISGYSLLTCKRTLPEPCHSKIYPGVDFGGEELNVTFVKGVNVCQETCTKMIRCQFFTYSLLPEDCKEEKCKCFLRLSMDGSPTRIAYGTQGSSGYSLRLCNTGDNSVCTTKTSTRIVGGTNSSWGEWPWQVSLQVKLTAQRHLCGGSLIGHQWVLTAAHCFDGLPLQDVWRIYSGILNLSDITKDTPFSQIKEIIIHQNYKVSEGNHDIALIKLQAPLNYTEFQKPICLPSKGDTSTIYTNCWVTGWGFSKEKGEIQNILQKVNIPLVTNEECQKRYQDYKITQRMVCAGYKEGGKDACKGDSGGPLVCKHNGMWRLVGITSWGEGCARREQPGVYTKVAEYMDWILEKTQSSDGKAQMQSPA
T2 sequence (P03952 20-638): as above
Sequence of neprilysin (NEP) (P08473 whole entry, the tested form may be a part, canonical isoform): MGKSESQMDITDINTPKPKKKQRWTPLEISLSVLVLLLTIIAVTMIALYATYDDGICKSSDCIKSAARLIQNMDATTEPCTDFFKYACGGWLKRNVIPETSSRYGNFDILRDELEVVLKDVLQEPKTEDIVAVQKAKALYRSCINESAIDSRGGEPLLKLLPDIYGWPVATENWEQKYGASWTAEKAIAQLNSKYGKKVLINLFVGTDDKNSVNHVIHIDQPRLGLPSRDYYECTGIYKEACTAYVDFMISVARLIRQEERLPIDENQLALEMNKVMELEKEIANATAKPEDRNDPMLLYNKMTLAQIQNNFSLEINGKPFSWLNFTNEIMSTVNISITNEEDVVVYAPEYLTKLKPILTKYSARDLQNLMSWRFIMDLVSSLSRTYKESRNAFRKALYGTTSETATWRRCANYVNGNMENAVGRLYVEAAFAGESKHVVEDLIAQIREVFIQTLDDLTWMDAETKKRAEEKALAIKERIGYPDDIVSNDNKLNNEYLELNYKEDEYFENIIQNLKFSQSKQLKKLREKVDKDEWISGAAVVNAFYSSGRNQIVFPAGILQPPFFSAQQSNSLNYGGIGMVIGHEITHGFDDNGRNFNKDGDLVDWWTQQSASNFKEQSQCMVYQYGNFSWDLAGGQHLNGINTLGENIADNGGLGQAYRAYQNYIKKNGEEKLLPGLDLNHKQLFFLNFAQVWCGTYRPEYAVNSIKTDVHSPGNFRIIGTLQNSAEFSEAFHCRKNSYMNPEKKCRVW

In the case of `CCCC[C@H](NC(=O)[C@@H]1CCCN1C(=O)CNC(=O)[C@H](CCCCN)NC(=O)[C@H](Cc1c[nH]cn1)NC(=O)[C@H](CO)NC(=O)N(CC(C)C)NC(=O)[C@H](CCCNC(=N)N)NC(=O)[C@@H]1CCCN1C(=O)[C@H](CCCNC(=N)N)NC(=O)[C@@H]1CCC(=O)N1)C(=O)NC(C)(C)C(=O)N[C@@H](Cc1ccc(Br)cc1)C(=O)O` [Peptide 18, pGlu-Arg-Pro-Arg-azaLeu-Ser-His-Lys-Gly-Pro-Nle-Aib-paraBrPhe] ([pGlu]RPR[azaLeu]SHKGP[Nle][Aib][Phe(4-Br)]-OH; C-terminus assumed), the Ki ([1]; displacement of [125I]-pyr-1-apelin-13 (0.2 nM), CHO membranes, rat apelin receptor-EGFP, means ± SE, read-out: Affinity Ki) is reported as 0.13 ± 0.063 nM, the “receptor binding affinity (in words)” value ([1]; rat apelin receptor) is reported as “modest improvement in receptor binding” and the remaining at 0.5 h, 80 µM (in vitro) is reported as 19 ± 5%. For the same compound, the remaining at 1 h, 80 µM (in vitro) was 2 ± 1% and the “ability to rescue the heart from ischemic reperfusion injury” value (isolated rat hearts) was “behaved comparably to that of the negative saline control”.

For `CCCCCCCCCCCCCCCC(=O)N[C@@H](CCCCN)C(=O)N[C@@H](Cc1ccccc1)C(=O)N[C@@H](CCCNC(=N)N)C(=O)N[C@@H](CCCNC(=N)N)C(=O)N[C@@H](CCC(N)=O)C(=O)N[C@@H](CCCNC(=N)N)C(=O)N1CCC[C@H]1C(=O)N[C@@H](CCCNC(=N)N)C(=O)N[C@@H](CC(C)C)C(=O)N[C@@H](CO)C(=O)N[C@@H](Cc1cnc[nH]1)C(=O)N[C@@H](CCCCN)C(=O)NCC(=O)N1CCC[C@H]1C(=O)N[C@@H](CCCC)C(=O)NC(C)(C)C(=O)N[C@@H](Cc1ccc(Br)cc1)C(=O)O` [Peptide 56] (Palmitoyl-KFRRQRPRLSHKGP[Nle][Aib][Phe(4-Br)]-OH), the half-life [2] was 1 h, the “Degradation Onset Timepoint with KLKB1” value [3] was 1 h and the half-life (neprilysin (NEP)) was 1.5 h.

For `CCCCCCCCCCCCCCCC(=O)N[C@@H](CCCCN)C(=O)N[C@@H](Cc1ccccc1)C(=O)N[C@@H](CCCNC(=N)N)C(=O)N[C@@H](CCCNC(=N)N)C(=O)N[C@@H](CCC(N)=O)C(=O)N[C@@H](CCCNC(=N)N)C(=O)N1CCC[C@H]1C(=O)N[C@@H](CCCNC(=N)N)C(=O)N(C)[C@@H](CC(C)C)C(=O)N[C@@H](CO)C(=O)N[C@@H](Cc1cnc[nH]1)C(=O)N[C@@H](CCCCN)C(=O)NCC(=O)N1CCC[C@H]1C(=O)N[C@@H](CCCC)C(=O)NC(C)(C)C(=O)N[C@@H](Cc1ccc(Br)cc1)C(=O)O` [Peptide 58] (Palmitoyl-KFRRQRPR[NMeL]SHKGP[Nle][Aib][Phe(4-Br)]-OH), the half-life [2] was 2.1 h, the “Degradation Onset Timepoint with KLKB1” value [3] was 2 h and the half-life (neprilysin (NEP)) was over 30 h.

In the case of “Lys-Phe-Arg-Arg-Gln-Arg-Pro-Arg-αMeLeu-Ser-His-Lys-Gly-Pro-Nle-Aib-paraBrPhe”, the cleaved bond [4] is reported as “Nle15-Aib16, minor”.

For “Lys-Phe-Arg-Arg-Gln-Arg-Pro-αMeArg-Leu-Ser-His-Lys-Gly-Pro-Nle-Aib-paraBrPhe”, the cleaved bond [4] was “Nle15-Aib16, minor”.

With “pGlu-Arg-Pro-Arg-NMeLeu-Ser-His-Lys-Gly-Pro-Nle-Aib-paraBrPhe” the cleaved bond [4] was “Nle11-Aib12, minor”.

In the case of “pGlu-Arg-Pro-Arg-azaLeu-Ser-His-Lys-Gly-Pro-Nle-Aib-paraBrPhe”, the cleaved bond [4] is reported as “Nle11-Aib12, minor”.

For “pGlu-Arg-Pro-Arg-αMeLeu-Ser-His-Lys-Gly-Pro-Nle-Aib-paraBrPhe”, the cleaved bond [4] was “Nle11-Aib12, minor”.

In the case of “pGlu-Arg-Pro-azaArg-Leu-Ser-His-Lys-Gly-Pro-Nle-Aib-paraBrPhe”, the cleaved bond [4] is reported as “Nle11-Aib12, minor”.

For “pGlu-Arg-Pro-αMeArg-Leu-Ser-His-Lys-Gly-Pro-Nle-Aib-paraBrPhe”, the cleaved bond [4] was “Nle11-Aib12, minor”.
